In PMC7281280, “Is the Way to Fight Cancer Paved with Gold? Metal-Based Carbene Complexes with Multiple and Fascinating Biological Features” (Pharmaceuticals, 2020):
Where two headings read alike, the source gives them in different places.

Legend:
[1] = tested on: MDA-MB-231 cells; test: Muse cell cycle assay; details: at IC50, 72 h
[2] = tested on: MDA-MB-231 cells; details: at IC50 value, 24 h
[3] = tested on: MDA-MB-231 cells; details: at IC50 value, 24 h; remark: listed apart in the source
Protocol: At this purpose, we performed immunostaining studies using the mitochondrial probe MitoTracker Deep Red FM and an anti-cytochrome c antibody, to follow the possible release of this protein from the mitochondrial district to the cytoplasm.
The same protocol was performed for mitochondrial staining. […] The primary antibody used in this case was the mouse anti-cytochrome c (556 433), purchased from BD Biosciences. The secondary antibodies used was Alexa Fluor® 488 conjugate goat-anti-mouse (1:500 dilution), purchased from Thermo Fisher Scientific, Waltham, MA, USA.
Images were acquired at 63x magnification and representative fields are shown.

[4] = target: T1, human topoisomerase I (hTopo I) (Homo sapiens, UniProt P11387); test: Human topoisomerase I relaxation assay; type: biochemical; details: 1 μM
T1 construct: purchased TopoGEN, Port Orange, FL, USA
T1 sequence (P11387 1-765): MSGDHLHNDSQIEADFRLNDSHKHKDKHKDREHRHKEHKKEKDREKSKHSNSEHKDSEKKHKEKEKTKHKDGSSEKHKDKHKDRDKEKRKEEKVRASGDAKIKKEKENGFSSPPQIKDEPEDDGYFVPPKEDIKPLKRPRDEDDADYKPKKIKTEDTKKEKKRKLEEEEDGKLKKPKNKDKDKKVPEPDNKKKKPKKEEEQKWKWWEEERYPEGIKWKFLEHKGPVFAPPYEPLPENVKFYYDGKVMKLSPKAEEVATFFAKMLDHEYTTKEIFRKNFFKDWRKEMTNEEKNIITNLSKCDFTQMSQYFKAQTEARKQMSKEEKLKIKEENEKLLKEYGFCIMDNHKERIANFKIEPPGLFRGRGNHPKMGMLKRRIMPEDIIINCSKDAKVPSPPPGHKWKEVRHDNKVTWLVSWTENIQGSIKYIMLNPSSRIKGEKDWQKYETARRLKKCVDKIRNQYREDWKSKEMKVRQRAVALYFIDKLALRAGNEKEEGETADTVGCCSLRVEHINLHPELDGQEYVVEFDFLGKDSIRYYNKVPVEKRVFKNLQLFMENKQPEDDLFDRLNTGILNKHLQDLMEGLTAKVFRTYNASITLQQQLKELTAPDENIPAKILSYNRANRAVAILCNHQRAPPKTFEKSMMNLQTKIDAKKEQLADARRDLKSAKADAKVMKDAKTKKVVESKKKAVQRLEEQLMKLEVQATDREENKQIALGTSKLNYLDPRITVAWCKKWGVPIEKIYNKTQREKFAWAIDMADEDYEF
Protocol: Topoisomerases are essential enzymes involved in DNA metabolism, because of their ability to cause temporary DNA strand breakage, and tightly involved, if overexpressed, in cancer development.
hTopo I relaxation assays have been performed in a final volume of […], as reported by Iacopetta et al., incubating […] of supercoiled plasmid pHOT1 in Tris-EDTA (TE) buffer (TopoGEN, Port Orange, FL, USA) with tested compounds and recombinant hTopo I (2 units) (TopoGEN, Port Orange, FL, USA) for 1h at 37 °C. The obtained solution has been loaded in a 1% agarose gel containing 1× Tris-acetate-EDTA (TAE) buffer without ethidium bromide (EB). Agarose gel has been stained using 1× TAE buffer with EB ([…]) for 30 min and after washed with distilled water for 15 min. At the end, it has been visualized by using a ultraviolet (UV) transilluminator. The experiment was performed in triplicate.
Figure 7 hTopoI assay.

[5] = tested on: ISHIKAWA human endometrial adenocarcinoma cells; test: MTT cell viability, […]; type: cell-based; details: 72 h, mean ± SD
Protocol: (§1) The six cell lines used in this work (MCF-7, MDA-MB-231, HeLa, […], MCF-10A and Hek-293) were purchased from American Type Culture Collection (ATCC, Manassas, VA, USA). MCF-7 human breast cancer cells, estrogen receptor (ER)-positive, were maintained in Dulbecco’s modified Eagle’s medium/nutrient mixture Ham F-12 (DMEM/F12), supplemented with 10% fetal bovine serum (FBS) and 100 U mL^−1 penicillin/streptomycin. MCF-10A human mammary epithelial cells, were cultured in DMEM/F12 medium, supplemented with 5% horse serum (HS, Thermo Fisher Scientific, Milan, Italy), 100 U mL^−1 penicillin/streptomycin, […] hydrocortisone, 20 ng mL^−1 human epidermal growth factor (hEGF), […] insulin, and […] cholera enterotoxin (Sigma–Aldrich, Milan, Italy). MDA-MB-231 human breast cancer cells, known as triple-negative cells (i.e., not overexpressing human epidermal growth factor receptor 2 (HER2), estrogen and progesterone receptors), were cultured in DMEM/F12 supplemented with 5% FBS, 1% L-glutamine and 100 U mL^−1 penicillin/streptomycin. HeLa human epithelial cervix carcinoma cells, estrogen receptor (ER)-negative, and […] human endometrial adenocarcinoma cells, estrogen receptor (ER)-positive, were maintained in minimum essential Eagle’s Medium (MEM), supplemented with 10% FBS, 1% L-glutamine, 100 U mL^−1 penicillin/streptomycin and 1% Non-Essential Amino Acids (NEAA). Hek-293 human embryonic kidney epithelial cells were cultured in DMEM high glucose (4.5 g L^−1), supplemented with 10% FBS, 1% L-glutamine and 100 U mL^–1 penicillin/streptomycin. Cells were maintained at 37 °C in a humidified atmosphere of 95% air and 5% CO2 and periodically screened for contamination.
(§2) Cell viability has been determined using the 3-(4,5-dimethylthiazol-2-y1)-2,5-diphenyltetrazolium bromide (MTT, Sigma–Aldrich, Milan, Italy) assay. Cells have been seeded on 48-well plates and grown in complete medium. Before being treated, cells have been starved in serum free medium for 24 h for allowing cell cycle synchronization. […] Data are representative of three independent experiments; standard deviations (SD) have been shown.

[6] = tested on: MCF-7 human breast cancer cells; test: MTT cell viability, MCF-7; type: cell-based; details: 72 h, mean ± SD
Protocol: as §1, §2

[7] = tested on: caspase-9; details: 5 μM, 24 h, MDA-MB-231 cells
[8] = tested on: Hek-293 human embryonic kidney epithelial cells; test: MTT cell viability, normal Hek-293; type: cell-based
Protocol: as §1, §2

[9] = tested on: caspases 3/7; test: Caspase-Glo assay, caspases 3/7; details: 5 μM, 24 h, MDA-MB-231 cells

SMILES: C[n+]1c(Cl)c(Cl)n(CC(O)c2ccccc2)[c]1[Au-][c]1n(CC(O)c2ccccc2)c(Cl)c(Cl)[n+]1C.[Cl][Au-][Cl] (racemic) [AuL7, bis-[4,5-dichloro-(N-methyl-N’(2-hydroxy-2-phenyl)ethyl-imidazole-2-ylidene)gold(I)]^+[dichloro-gold]^−]
- increase of the percentage of cells in G2/M phase vs DMSO control [1]: 33.2%
- increase of the percentage of cells in S phase vs DMSO control [1]: 16.1%
- apoptosis (TUNEL) [2]: green nuclear fluorescence
- cytochrome c localization [3]: cytochrome c release and diffusion into the cytoplasmic compartment
- mitochondrial integrity (MitoTracker Deep Red FM) [3]: loss of mitochondrial structural integrity
- inhibition of hTopo I supercoil relaxing activity [4]: totally inhibition
- IC50 [5]: 29.9 ± 0.9 µM
- IC50 [6]: 5.18 ± 0.4 µM
- caspase-9 activity [7]: discrete increase
- IC50 ([8]; normal cells, MTT, 72 h, mean ± SD, read-out: IC50 Hek-293): 65 µM
- IC50 ([8]; read-out: IC50 Hek-293 of AuL7 after Quercetin pre-treatment, pre-treatment for 4 h with Quercetin (at 50 μM)): 96.9 ± 1.1 µM
- caspases 3/7 activity [9]: clear increase
